The test system of assay [1] is Kpn.2478 (KPC-2, TEM+, clinical). Description: Standard BLI potentiation MIC assay. The following applies: Klebsiella pneumoniae, read-out: MIC of β-lactam with BLI. Type of assay: cell-based. As for the experimental part: (§1) The experimental protocol was performed according to Clinical and Laboratory Standards Institute (CLSI) guidelines with modifications as described below (CLSI guidelines can be derived from the CLSI document M07-A9 published in January 2012: “Methods for Dilution Antimicrobial Susceptibility Tests for Bacteria That Grow Aerobically; Approved Standard-Ninth Edition”).
(§2) To prepare for MIC testing, frozen glycerol stocks of clinical isolates (Klebsiella pneumoniae, Eschericia coli, Enterobacter spp, Citrobacter spp, or Pseudomonas aeruginosa) were used to streak for isolated colonies on rich, non-selective, tryptic soy agar containing 5% sheep's blood (TSAB). Frozen glycerol stocks of laboratory engineered, isogenic E. coli strains, which contain cloned β-lactamase expressing plasmids were used to streak for isolated colonies on rich, selective LB agar supplemented with 25 μg/mL tetracycline to maintain the plasmid. All strains were incubated at 37° C. for 18-24 hrs.
(§3) On the day of testing, primary cultures were started by scraping off 5-10 colonies from the TSAB plates containing clinical strains or the tetracycline supplemented LB plates containing engineered strains. The clinical strain material was suspended in ˜5 mL of cation adjusted Mueller Hinton Broth (CAMHB) in 14 mL culture tubes. The engineered strain material was suspended in CAMHB (supplemented with 25 μg/mL tetracycline) in 14 mL culture tubes. All strains were incubated at 37° C. with aeration (200 rpm) for ˜2 hrs until the optical density at 600 nm (OD600) was ≧0.1.
(§4) The two compound components of the assay were each diluted in CAMHB and added to the 96-well broth microdilution assay plates. 50 μL of the β-lactam was added to each well of the assay plate in 2-fold dilutions with final concentrations ranging from 128 to 0.13 μg/mL. 25 μL of the BLI compound was added to all wells in the broth microdilution plates at a final concentration of 4 μg/mL. Inoculum cultures were prepared by standardizing the primary cultures to OD600=0.1 and then adding 20 μL of the adjusted primary culture per 1 mL CAMHB for clinical strains or CAMHB (supplemented with tetracycline at 100 μg/mL) for engineered strains, so that the final inoculum density was ˜10^5 colony forming units per milliliter. Diluted inoculum cultures were used to inoculate 25 μL per well in 96-well broth microdilution assay plates. The final volume of each well was 100 μL and contained a β-lactam at different concentrations, a BLlcompound at 4 μg/mL concentration, the bacterial culture at an OD600 of approximately 0.001 and when necessary tetracycline at 25 μg/mL.
(§5) Plates were incubated for 18-20 hours at 37° C. with aeration (200 rpm). Following incubation, growth was confirmed visually placing plates over a viewing apparatus (stand with a mirror underneath) and then OD600 was measured using a SpectraMax 340PC384 plate reader (Molecular Devices, Sunnyvale, Calif.). Growth was defined as turbidity that could be detected with the naked eye or achieving minimum OD600 of 0.1. MIC values were defined as the lowest concentration producing no visible turbidity.

Assay [2] deals with Kpn.2490 (KPC-3, SHV+, TEM+, clinical). Briefly: Standard BLI potentiation MIC assay. Format: cell-based. The conditions noted are these: Klebsiella pneumoniae, read-out: MIC of β-lactam with BLI. As for the experimental part:
as §1, §2, §3, §4, §5

The subject of assay [3] is Kpn.2783 (CTX-M-15, SHV+, TEM+, clinical). Briefly: Standard BLI potentiation MIC assay. Format: cell-based. The following applies: Klebsiella pneumoniae, read-out: MIC of β-lactam with BLI. As for the experimental part:
as §1, §2, §3, §4, §5

Assay [4] has as its system Kpn.2909 (KPC-3, SHV+, TEM+, clinical). Briefly: Standard BLI potentiation MIC assay. Format: cell-based. The following applies: Klebsiella pneumoniae, read-out: MIC of β-lactam with BLI. As for the experimental part: as §1, §2, §3, §4, §5
Assay [5] has as its system Kpn.2914 (KPC-2, SHV+, clinical). Briefly: Standard BLI potentiation MIC assay. Type of assay: cell-based. The following applies: Klebsiella pneumoniae, read-out: MIC of β-lactam with BLI. As for the experimental part:
as §1, §2, §3, §4, §5

The test system of assay [6] is Kpn.2917 (KPC-2, SHV+, clinical). Briefly: Standard BLI potentiation MIC assay. Type of assay: cell-based. The conditions noted are these: Klebsiella pneumoniae, read-out: MIC of β-lactam with BLI. The method, then:
as §1, §2, §3, §4, §5

Assay [7] has as its system Kpn.2918 (KPC-3, SHV+, TEM+, clinical). Description: Standard BLI potentiation MIC assay. Format: cell-based. The conditions noted are these: Klebsiella pneumoniae, read-out: MIC of β-lactam with BLI. The method, then: as §1, §2, §3, §4, §5
Assay [8] has as its system Kpn.2926 (CTX-M-15, OXA-48, clinical). Briefly: Standard BLI potentiation MIC assay. The conditions noted are these: Klebsiella pneumoniae, read-out: MIC of β-lactam with BLI. Type of assay: cell-based. As for the experimental part: as §1, §2, §3, §4, §5
The subject of assay [9] is Kpn.571 (TEM-26, clinical). Briefly: Standard BLI potentiation MIC assay. Format: cell-based. The following applies: Klebsiella pneumoniae, read-out: MIC of β-lactam with BLI. The method, then:
as §1, §2, §3, §4, §5

The test system of assay [10] is Pae.2757 (AmpC over-expn, clinical). Briefly: Standard BLI potentiation MIC assay. Type of assay: cell-based. The following applies: Pseudomonas aeruginosa, read-out: MIC of β-lactam with BLI. The method, then: as §1, §2, §3, §4, §5
For assay [11], the system named is Pae.2808 (KPC-2, clinical). Description: Standard BLI potentiation MIC assay. Format: cell-based. The conditions noted are these: Pseudomonas aeruginosa, read-out: MIC of β-lactam with BLI. As for the experimental part: as §1, §2, §3, §4, §5
Assay [12] relates to Pae.2863 (AmpC de-repress, clinical). Briefly: Standard BLI potentiation MIC assay. Format: cell-based. The following applies: Pseudomonas aeruginosa, read-out: MIC of β-lactam with BLI. As for the experimental part:
as §1, §2, §3, §4, §5

Another assay concerns the target KPC-2 β-lactamase (Klebsiella pneumoniae, UniProt Q9F663). Briefly: Inhibition kinetics with nitrocefin as reporter substrate. Format: biochemical. The following applies: 100 μM nitrocefin, 1×PBS pH 7.4, 25° C. As for the experimental part: Inhibition or inactivation of KPC-2 by test inhibitors was assessed using 100 μM nitrocefin (NCF) as a reporter substrate. Assays were performed in 1×PBS pH 7.4, 0.1 mg/ml BSA, in 96-well half area plates, 50 μl reaction volume. NCF was dissolved in DMSO and diluted in assay buffer. Test inhibitors were dissolved in water or DMSO and serially diluted in the assay with final concentrations between 2000-0.195 μM.
The enzyme activity in the presence of varying concentrations of test inhibitor was determined by monitoring the hydrolysis of NCF spectrophotometrically at 486 nm, for 5 minutes, 25° C., using a SpectraMax Plus384 microplate reader with SoftMax Pro software (Molecular Devices). Data analysis was performed using GraphPad Prism (GraphPad Software, Inc.).
Progress curves were fit to a first-order rate decay equation (Eq. 1) to determine kobserved (kobs).
kobs vs. inhibitor concentration [I] curves were then fit to Eq.2 to determine the inhibitor dissociation constant (K) and the first order rate constant of enzyme inactivation at infinite inhibitor concentration (kinact). […] Yt=V0*(1−e^(−kobs*t))/kobs Eq. 1 Where Y is the absorbance at time t, V0 is the uninhibited enzyme velocity, kobs is the observed rate constant of the enzyme inactivation. kobs=kinact*[I]/([I]+K(1+S/Km)) Eq. 2 Where S is the NCF concentration, Km is the KPC-2 Km for NCF.

Chain of KPC-2 β-lactamase (Q9F663 25-293 limits assumed): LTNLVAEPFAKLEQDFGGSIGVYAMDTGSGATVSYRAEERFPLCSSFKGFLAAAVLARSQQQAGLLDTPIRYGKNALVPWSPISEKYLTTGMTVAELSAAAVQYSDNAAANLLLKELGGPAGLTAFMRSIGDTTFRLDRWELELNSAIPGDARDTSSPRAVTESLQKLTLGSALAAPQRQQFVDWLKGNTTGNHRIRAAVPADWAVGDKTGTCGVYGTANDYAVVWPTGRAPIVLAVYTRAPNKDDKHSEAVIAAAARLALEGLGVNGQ

With `O=C1N2C[C@@H](CC[C@H]2c2nnco2)N1OS(=O)(=O)[O-].[Na+]` [Hydrate 1, sodium (2S,5R)-2-(1,3,4-oxadiazol-2-yl)-7-oxo-1,6-diazabicyclo[3.2.1]octan-6-yl sulfate], the minimal inhibitory concentration (MIC) – broadly, the lowest concentration that inhibits growth of the organism – in assay [1] lay in the range of 4 to 8 µg/mL; in assay [2], 0.25 to 0.5 µg/mL; in assay [3], 0.25 to 0.5 µg/mL; in assay [4], 1 to 2 µg/mL; in [5], 1 to 2 µg/mL; in assay [6], 0.25 to 0.5 µg/mL. Moreover, the minimal inhibitory concentration (MIC) in assay [7] was in the range of 1 to 2 µg/mL; in assay [8] it was 1 to 2 µg/mL; in assay [9], 0.25 to 0.5 µg/mL; in assay [10], 1 to 2 µg/mL; in [11] it was 4 to 8 µg/mL; in [12], 1 to 2 µg/mL. The same compound yielded a Kinact/K on KPC-2 β-lactamase of 134 to 163 mM⁻¹ s⁻¹.

Values taken from patent publication US9120795B2, “Crystalline form of a β-lactamase inhibitor” (Cubist Pharmaceuticals, Inc., priority 2013, dated 2015).
